Converted amounts (≈) assume the structure as drawn. Read-outs that look alike come from different tables or passages of the source. Numbered stars: 1 amine (or outer) side, 2 acyl side, 3 side chain; on linkers, the order of the positions; unused ones are H or OH. Bridge positions count the residues as written; N and C are the ends. Peptide text beside a SMILES is read from it. I, II: the chains in the order shown. X2 = c1ccc([Si](O[*:1])(O[*:2])c2ccccc2)cc1; OSiEt2O = CC[Si](CC)(O[*:1])O[*:2]
What was measured:
Lymphome = test: Effect on lymphomas
Maus = test: Pharmacological observation in the mouse (central, vegetative and toxic effects, acute toxicity); assay type: in vivo; details: for oLD (orienberende letale Dosis): mouse, in vivo
From the text: Pharmakologische Untersuchungen an der Maus
Die Verbindungen wurden an der Maus auf zentrale, vegetative und toxische Effekte geprüft. Durch systemische Einzelbeobachtungen sind neben der akuten Toxizität (orienberende letale Dosis, oLD) zentrale und vegetative Wirkungen der Testsubstanzen, insbesondere Effekte auf die Motorik und das Reaktionsvermögen, die Haut- und Rektaltemperatur sowie auf die Pupillenmotorik erfasst worden. Die getesteten Dosierungen betrugen 5 •10^-4, 1 • 10^-3 und 5 • 10^-3 mol/kg Körpergewicht Letale Wirkungen konnten bei keiner der Verbindungen beobachtet werden. Die oLD lag für Di(tetradecanoyloxy)dimethylsilan und Di(octadecanoyloxy)dimethylsilan unter 1 • 10^-3 mol/kg Körpergewicht für alle übrigen Verbindungen unter 5 • 10^-3 mollkg Körpergewicht.

Osteosarkome = test: Effect on osteosarcomas
[1] = tested on: Kälber-Aortenendothelzellinie BKEz-7; test: tissue or blood; assay type: cell-based; details: for IC50: suspensions, 48 Stunden bei 37°C
From the text: Prüfung auf zytotoxisches Potential an Kälber-Aortenendothelzellinie BKEz-7
Als Marker für eine zytotoxische Wirkung wird bei Zellen der charakterisierten Kälber-Aortenendothelzellinie BKEz-7 die Hemmkonzentration ermittelt, bei der eine 50%-ige Hemmung der Zellproliferation erfolgt (im Vergleich zu Kontrollkulturen ohne Zusatz eines Zellinhibitors). Die resultierende Reduzierung der Zellzahl um 50% wird als IC 50 ausgedrückt. Die getesteten Silanverbindungen wurden als Suspensionen auf die Kulturen gegeben und 48 Stunden bei 37°C inkubiert. Zusätzlich erfolgten morphologische Kontrollen und Vitalitätsbestimmungen mittels dem Neutralrot-Test. Mit Ausnahme des Di(dodecanoyloxy)dimethylsilans standen alle Ergebnisse der morphologischen Untersuchungen in guter Übereinstimmung. […]

Basalzellkarzinome = test: Effect on basal cell carcinomas
Seminome = test: Effect on seminomas
Angiosarkome = test: Effect on angiosarcomas
[2] = tested on: BxPC3 (pankreatisches Adenokarzinom); test: MTT test, triplicate, two-fold dilutions; assay type: cell-based; details: Homo sapiens
Experimental: (§1) Die Silan wurden in Ethanol aufgelöst und in Zellkulturmedien in Konzentrationen von bis zu 500 µg/ml resuspendiert. Es wurden MTT Tests in dreifacher Ausführung durchgeführt, für welche doppelte Lösungen (7 Schritte) und colo205 (Kofon-Karzinom), BxPC3 (pankreatisches Adenokarzinom) sowie T47D (Brustkrebs) benutzt wurden.

T47D (Brustkrebs) = test: MTT test, triplicate, two-fold dilutions; assay type: cell-based; details: Homo sapiens, T47D, read-out: IC50 T47D
Experimental: as §1

colo205 (Kofon-Karzinom) = test: MTT test, triplicate, two-fold dilutions; assay type: cell-based; details: Homo sapiens
Experimental: as §1

[3] = COLO 205, read-out: IC50 Colo205

Compound: CCCCCCCC/C=C\CCCCCCCC(=O)O[Si](C)(C)OC(=O)CCCCCCC/C=C\CCCCCCCC
- Wirkung auf Lymphome (Lymphome): zeigen eine Wirkung

Compound: CC/C=C\C/C=C\C/C=C\CCCCCCCC(=O)O[Si](C)(C)OC(=O)CCCCCCC/C=C\C/C=C\C/C=C\CC [Di (lino-lenoylooxy)dimethylsilan]
- Wirkung auf Lymphome (Lymphome): zeigen eine Wirkung

Compound: CCCCCCCCCC(=O)O[Si](C)(C)OC(=O)CCCCCCCCC [Di(decanoyloxy)dimethylsilan]
- zentrale, vegetative und toxische Effekte (Verhaltensänderungen) (Maus; 1•10^-3 mol/kg): Piloerektion
- zentrale, vegetative und toxische Effekte (Verhaltensänderungen) (Maus; 5•10^-3 mol/kg): schwach bis mäßig ausgeprägte Verhaltensänderung en
- zentrale, vegetative und toxische Effekte (Verhaltensänderungen) (Maus; 5•10^-4 mol/kg): keine Verhaltensänderungen
- Wirkung auf Osteosarkome (Osteosarkome): zeigen eine Wirkung

Compound: CCCCCCCCCC(=O)O[Si](OC(=O)CCCCCCCCC)(c1ccccc1)c1ccccc1 [Di(decanoyloxy)diphenylsilan]
- Bedenkliche Toxizität [1]: -
- IC50 [1]: 14 µM
- zentrale, vegetative und toxische Effekte (Verhaltensänderungen) (Maus; 1•10^-3 mol/kg): keine Verhaltensänderungen
- zentrale, vegetative und toxische Effekte (Verhaltensänderungen) (Maus; 5•10^-3 mol/kg): schwache Ataxie
- zentrale, vegetative und toxische Effekte (Verhaltensänderungen) (Maus; 5•10^-4 mol/kg): keine Verhaltensänderungen
- Wirkung auf Basalzellkarzinome (Basalzellkarzinome): zeigen eine Wirkung

Compound: CCCCCCCCCC(=O)O[Si](CCC)(CCC)OC(=O)CCCCCCCCC [Di(decanoyloxy)dipropylsilan]
- Wirkung auf Seminome (Seminome): zeigen eine Wirkung

Compound: CCCCCCCCCCCC(=O)O[Si](OC(=O)CCCCCCCCCCC)(c1ccccc1)c1ccccc1 [Di(dodecanoyloxy)diphenylsilan]
- Bedenkliche Toxizität [1]: -
- IC50 [1]: 36 µM
- zentrale, vegetative und toxische Effekte (Verhaltensänderungen) (Maus; 1•10^-3 mol/kg): keine Verhaltensänderungen
- zentrale, vegetative und toxische Effekte (Verhaltensänderungen) (Maus; 5•10^-3 mol/kg): keine Verhaltensänderungen
- zentrale, vegetative und toxische Effekte (Verhaltensänderungen) (Maus; 5•10^-4 mol/kg): keine Verhältensänderungen
- Wirkung auf Basalzellkarzinome (Basalzellkarzinome): zeigen eine Wirkung

Compound: CCCCCCCCCCCCCCCCC(=O)O[Si](OC(=O)CCCCCCCCCCCCCCCC)(C(C)C)C(C)C [Di(heptadecanoyloxy)diisopropylsilan]
- Wirkung auf Lymphome (Lymphome): zeigen eine Wirkung

Compound: CCCCC/C=C\C/C=C\CCCCCCCC(=O)O[Si](CC)(CC)OC(=O)CCCCCCC/C=C\C/C=C\CCCCC [Di(linoylooxy)diethylsilan]
- Wirkung auf Lymphome (Lymphome): zeigen eine Wirkung

Compound: CCCCC/C=C\C/C=C\CCCCCCCC(=O)O[Si](C)(C)OC(=O)CCCCCCC/C=C\C/C=C\CCCCC [Di(linoylooxy)dimethylsilan]
- Wirkung auf Lymphome (Lymphome): zeigen eine Wirkung

Compound: CCCCCCCCC(=O)O[Si](C)(C)OC(=O)CCCCCCCC [Di(nonanoyloxy)dimethylsilan]
- Wirkung auf Osteosarkome (Osteosarkome): zeigen eine Wirkung

Compound: CCCCCCCCC(=O)O[Si](CCC)(CCC)OC(=O)CCCCCCCC [Di(nonanoyloxy)dipropylsilan]
- Wirkung auf Seminome (Seminome): zeigen eine Wirkung

Compound: CCCCCCCCCCCCCCCCCC(=O)O[Si](OC(=O)CCCCCCCCCCCCCCCCC)(C(C)C)C(C)C [Di(octadecanoyloxy)diisopropylsilan]
- Wirkung auf Lymphome (Lymphome): zeigen eine Wirkung

Compound: CCCCCCCCCCCCCCCCCC(=O)O[Si](C)(C)OC(=O)CCCCCCCCCCCCCCCCC [Di(octadecanoyloxy)dimethylsilan]
- Bedenkliche Toxizität [1]: -
- IC50 [1]: 495 µM
- zentrale, vegetative und toxische Effekte (Verhaltensänderungen) (Maus; 1•10^-3 mol/kg): keine Verhaltensänderungen
- zentrale, vegetative und toxische Effekte (Verhaltensänderungen) (Maus; 5•10^-4 mol/kg): keine Verhaltensänderungen
- oLD (orienberende letale Dosis) (Maus): < 1 • 10^-3 mol/kg Körpergewicht
- Wirkung auf Osteosarkome (Osteosarkome): zeigen eine Wirkung

Compound: CCCCCCCC(=O)O[Si](C)(C)OC(=O)CCCCCCC [Di(octanoyloxy)dimethylsilan]
- Wirkung auf Osteosarkome (Osteosarkome): zeigen eine Wirkung

Compound: CCCCCCCC(=O)O[Si](OC(=O)CCCCCCC)(c1ccccc1)c1ccccc1 [Di(octanoyloxy)diphenylsilan]
- Bedenkliche Toxizität [1]: -
- IC50 [1]: > 20 µM
- zentrale, vegetative und toxische Effekte (Verhaltensänderungen) (Maus; 1•10^-3 mol/kg): Ataxie, Hyper-aktivität
- zentrale, vegetative und toxische Effekte (Verhaltensänderungen) (Maus; 5•10^-3 mol/kg): schwache Ataxie, Hyperaktivität
- zentrale, vegetative und toxische Effekte (Verhaltensänderungen) (Maus; 5•10^-4 mol/kg): schwache Hyperaktivität
- Wirkung auf Basalzellkarzinome (Basalzellkarzinome): zeigen eine Wirkung

Compound: CCCCCCCCCCCCCC(=O)O[Si](C)(C)OC(=O)CCCCCCCCCCCCC [Di(tetradecanoyloxy)dimethylsilan]
- Bedenkliche Toxizität [1]: -
- IC50 [1]: 110 µM
- zentrale, vegetative und toxische Effekte (Verhaltensänderungen) (Maus; 1•10^-3 mol/kg): Ataxie
- zentrale, vegetative und toxische Effekte (Verhaltensänderungen) (Maus; 5•10^-4 mol/kg): schwache Ataxie, Piloerektion
- oLD (orienberende letale Dosis) (Maus): < 1 • 10^-3 mol/kg Körpergewicht
- Wirkung auf Osteosarkome (Osteosarkome): zeigen eine Wirkung

Compound: CCCCCCCCCCC(=O)O[Si](CCC)(CCC)OC(=O)CCCCCCCCCC [Di(undecanoyloxy) dipropylsilan]
- Wirkung auf Seminome (Seminome): zeigen eine Wirkung

Compound: CC[Si](CC)(OC(=O)CNC(=O)CNC(=O)CNC(=O)CNC(=O)CNC(=O)CN)OC(=O)CNC(=O)CNC(=O)CNC(=O)CNC(=O)CNC(=O)CN [Diethyl bis(hexaglycyl)Silylester]
- Wirkung gegen Angiosarkome (Angiosarkome): zeigen eine Wirkung

Compound: CC[Si](CC)(OC(=O)CNC(=O)CNC(=O)CNC(=O)CNC(=O)CNC(=O)CNC(=O)CNC(=O)CN)OC(=O)CNC(=O)CNC(=O)CNC(=O)CNC(=O)CNC(=O)CNC(=O)CNC(=O)CN [Diethyl bis(octablycyl)silylester] (I: H-GGGGGGGG / II: H-GGGGGGGG; linker I:C-II:C via OSiEt2O)
- Wirkung gegen Angiosarkome (Angiosarkome): zeigen eine Wirkung

Compound: C[C@H](N)C(=O)N[C@@H](C)C(=O)N[C@@H](C)C(=O)N[C@@H](C)C(=O)N[C@@H](C)C(=O)N[C@@H](C)C(=O)N[C@@H](C)C(=O)N[C@@H](C)C(=O)N[C@@H](C)C(=O)N[C@@H](C)C(=O)O[Si](OC(=O)[C@H](C)NC(=O)[C@H](C)NC(=O)[C@H](C)NC(=O)[C@H](C)NC(=O)[C@H](C)NC(=O)[C@H](C)NC(=O)[C@H](C)NC(=O)[C@H](C)NC(=O)[C@H](C)NC(=O)[C@H](C)N)(c1ccccc1)c1ccccc1 [Diphenyl bis(decaalanyl)silylester]
- Wirkung gegen Angiosarkome (Angiosarkome): zeigen eine Wirkung

Compound: CC(C)[C@H](N)C(=O)N[C@H](C(=O)N[C@H](C(=O)N[C@H](C(=O)N[C@H](C(=O)N[C@H](C(=O)N[C@H](C(=O)O[Si](OC(=O)[C@@H](NC(=O)[C@@H](NC(=O)[C@@H](NC(=O)[C@@H](NC(=O)[C@@H](NC(=O)[C@@H](NC(=O)[C@@H](N)C(C)C)C(C)C)C(C)C)C(C)C)C(C)C)C(C)C)C(C)C)(c1ccccc1)c1ccccc1)C(C)C)C(C)C)C(C)C)C(C)C)C(C)C)C(C)C [Diphenyl bis(heptavalyl)silylester] (I: H-VVVVVVV / II: H-VVVVVVV; linker I:C-II:C via X2)
- Wirkung gegen Angiosarkome (Angiosarkome): zeigen eine Wirkung

Compound: CC(C)[C@H](N)C(=O)N[C@H](C(=O)N[C@H](C(=O)N[C@H](C(=O)N[C@H](C(=O)N[C@H](C(=O)O[Si](OC(=O)[C@@H](NC(=O)[C@@H](NC(=O)[C@@H](NC(=O)[C@@H](NC(=O)[C@@H](NC(=O)[C@@H](N)C(C)C)C(C)C)C(C)C)C(C)C)C(C)C)C(C)C)(c1ccccc1)c1ccccc1)C(C)C)C(C)C)C(C)C)C(C)C)C(C)C [Diphenyl bis(hexavalyl)silylester] (I: H-VVVVVV / II: H-VVVVVV; linker I:C-II:C via X2)
- Wirkung gegen Angiosarkome (Angiosarkome): zeigen eine Wirkung

Compound: CCCCCCCCCCCCC(=O)O[Si](CC)(CC)OC(=O)CCCCCCCCCCCC [Si 6, Di (tridecanoyloxy) diethylsilan]
- IC50 ([2]; BXPC-3, read-out: IC50 BxPC3): 150 µg/mL (≈ 292 µM)
- IC50 (T47D (Brustkrebs)): 250 µg/mL (≈ 487 µM)
- IC50 (colo205 (Kofon-Karzinom); [3]): 240 µg/mL (≈ 468 µM)

Compound: CCCCCCCCCCCCCCCC(=O)O[Si](OC(=O)CCCCCCCCCCCCCCC)(c1ccccc1)c1ccccc1 [Si 8, Di (hexadecanoyloxy) diphenylsilan]
- zentrale, vegetative und toxische Effekte (Verhaltensänderungen) (Maus; 1•10^-3 mol/kg): keine Verhaltensänderungen
- zentrale, vegetative und toxische Effekte (Verhaltensänderungen) (Maus; 5•10^-3 mol/kg): schwache Ataxie, Hyperaktivität und Piloerektion, Straubtail
- zentrale, vegetative und toxische Effekte (Verhaltensänderungen) (Maus; 5•10^-4 mol/kg): keine Verhaltensänderungen
- IC50 ([2]; BXPC-3, up to 500 µg/ml, read-out: IC50 BxPC3): 30 µg/mL (≈ 43.3 µM)
- IC50 (T47D (Brustkrebs); up to 500 µg/ml): 20 µg/mL (≈ 28.9 µM)
- IC50 (colo205 (Kofon-Karzinom); COLO 205, up to 500 µg/ml, read-out: IC50 Colo205): 300 µg/mL (≈ 433 µM)
- Wirkung auf Basalzellkarzinome (Basalzellkarzinome): zeigen eine Wirkung

Compound: CCCCCCCCCCCCCC(=O)O[Si](CC)(CC)OC(=O)CCCCCCCCCCCCC [Si 14, Di (tetradecanoyloxy) diethylsilan]
- IC50 ([2]; BXPC-3, read-out: IC50 BxPC3): 70 µg/mL (≈ 129 µM)
- IC50 (T47D (Brustkrebs)): 65 µg/mL (≈ 120 µM)
- IC50 (colo205 (Kofon-Karzinom); [3]): 250 µg/mL (≈ 462 µM)

Source: EP1948196B1, “USE OF TETRAORGANOSILICON COMPOUNDS” (Salama, Zoser B., priority 2005, dated 2007)
